Assay results taken from ChEMBL document CHEMBL1201862, “PubChem BioAssay data set” (2004).
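Values below derive from 48-hour exposures of cells grown in 96-well plates, with endpoints linearly interpolated between the two concentrations bracketing the appropriate inhibition level. Abbreviation: GI50, concentration required for 50% inhibition of growth.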 Active and inactive are the calls of the source. Rule as the data show it: active = GI50 up to about 1.1 µM and inactive = higher.

What was measured:
Experiment in all cases: NCI anticancer screen, dose series, 48 h
[1] = system: HL-60
[2] = system: SK-OV-3
[3] = system: KM12
[4] = system: HCT-116
[5] = system: NCI-H460
[6] = system: IGROV-1
[7] = system: UACC-62
[8] = system: MOLT-4
[9] = system: CCRF-CEM
[10] = system: SNB-78
[11] = system: HT-29
[12] = system: EKVX
[13] = system: A549
[14] = system: NCI-H522
[15] = system: OVCAR-8
[16] = system: NCI-H226
[17] = system: UO-31
[18] = system: SR
[19] = system: U-251
[20] = system: HOP-92
[21] = system: SNB-19
[22] = system: A498
[23] = system: SK-MEL-28
[24] = system: NCI-H23
[25] = system: RXF 393
[26] = system: UACC-257
[27] = system: OVCAR-5
[28] = system: TK-10
[29] = system: HOP-62
[30] = system: SF-268
[31] = system: SF-295
[32] = system: DMS-273
[33] = system: M14
[34] = system: M19-MEL
[35] = system: SF-539
[36] = system: HCC 2998
[37] = system: SNB-75
[38] = system: CAKI-1
[39] = system: Malme-3M
[40] = system: HCT-15
[41] = system: MDA-MB-231
[42] = system: COLO 205
[43] = system: K562
[44] = system: 786-0
[45] = system: MCF7
[46] = system: RPMI-8226
[47] = system: PC-3
[48] = system: DU-145
[49] = system: Hs-578T
[50] = system: ACHN
[51] = system: NCI/ADR-RES
[52] = system: SN12C
[53] = system: SK-MEL-2
[54] = system: SW-620
[55] = system: LOX IMVI
[56] = system: T47D
[57] = system: OVCAR-3
[58] = system: BT-549
[59] = system: MDA-MB-435
[60] = system: SK-MEL-5
[61] = system: OVCAR-4
[62] = system: MDA-N

Q: `CCSc1c2ccccc2nc2c(OC)ccc(OC)c12` was tested. Which GI50 [1] did it give?
A: 23.3 µM (inactive)

Q: And the GI50 [2]?
A: 24.7 µM (inactive)

Q: And the GI50 [3]?
A: 24.7 µM (inactive)

Q: What about the GI50 [4] of the same molecule?
A: 20.1 µM (inactive)

Q: And the GI50 [5]?
A: 20.7 µM (inactive)

Q: What about the GI50 [6] of the same molecule?
A: 26.7 µM (inactive)

Q: What about the GI50 [7] of the same molecule?
A: 20.6 µM (inactive)

Q: What about the GI50 [8] of the same molecule?
A: 22 µM (inactive)

Q: And the GI50 [9]?
A: 36.3 µM (inactive)

Q: What about the GI50 [10] of the same molecule?
A: 14.5 µM (inactive)

Q: And the GI50 [11]?
A: 25.7 µM (inactive)

Q: And the GI50 [12]?
A: > 100 µM (inactive)

Q: What about the GI50 [13] of the same molecule?
A: 70.6 µM (inactive)

Q: And the GI50 [14]?
A: 41.2 µM (inactive)

Q: What about the GI50 [15] of the same molecule?
A: 22.1 µM (inactive)

Q: And the GI50 [16]?
A: 25.1 µM (inactive)

Q: And the GI50 [17]?
A: 25.9 µM (inactive)

Q: What about the GI50 [18] of the same molecule?
A: 23.9 µM (inactive)

Q: And the GI50 [19]?
A: 19.3 µM (inactive)

Q: And the GI50 [20]?
A: 22.3 µM (inactive)

Q: And the GI50 [21]?
A: 29.1 µM (inactive)

Q: What about the GI50 [22] of the same molecule?
A: 31 µM (inactive)

Q: And the GI50 [23]?
A: 19.8 µM (inactive)

Q: What about the GI50 [24] of the same molecule?
A: > 10 µM (inactive)

Q: And the GI50 [25]?
A: 18.6 µM (inactive)

Q: What about the GI50 [26] of the same molecule?
A: 22.4 µM (inactive)

Q: And the GI50 [27]?
A: 42.3 µM (inactive)

Q: And the GI50 [28]?
A: 33.8 µM (inactive)

Q: And the GI50 [29]?
A: 36.5 µM (inactive)

Q: And the GI50 [30]?
A: 22.8 µM (inactive)

Q: What about the GI50 [31] of the same molecule?
A: 25.2 µM (inactive)

Q: What about the GI50 [32] of the same molecule?
A: 21.9 µM (inactive)

Q: And the GI50 [33]?
A: 35.7 µM (inactive)

Q: And the GI50 [34]?
A: 18.5 µM (inactive)

Q: What does the source list for `CCC/C(Cl)=N\OC(=O)Nc1ccc(Br)cc1`?
A: GI50 [1]: 1.99 µM (inactive); GI50 [35]: 17.5 µM (inactive); GI50 [36]: 17.3 µM (inactive); GI50 [2]: 16.8 µM (inactive); GI50 [37]: 13.5 µM (inactive); GI50 [3]: 10.8 µM (inactive); GI50 [38]: 4.36 µM (inactive); GI50 [39]: 5.73 µM (inactive); GI50 [40]: 2.56 µM; GI50 [4]: 9.48 µM (inactive); GI50 [5]: 16.5 µM (inactive); GI50 [41]: 16.9 µM (inactive); GI50 [42]: 2.73 µM (inactive); GI50 [43]: 1.94 µM (inactive); GI50 [6]: 12.8 µM (inactive); GI50 [7]: 18.9 µM (inactive); GI50 [8]: 2.55 µM (inactive); GI50 [9]: 1.78 µM (inactive); GI50 [11]: 17.7 µM (inactive); GI50 [12]: 14.6 µM (inactive); GI50 [13]: 18.4 µM (inactive); GI50 [44]: 7.24 µM (inactive); GI50 [14]: 1.75 µM (inactive); GI50 [45]: 6.47 µM (inactive); GI50 [46]: 2.96 µM (inactive); GI50 [15]: 14.6 µM (inactive); GI50 [47]: 14.7 µM (inactive); GI50 [48]: 13.8 µM (inactive); GI50 [49]: 21.1 µM (inactive); GI50 [50]: 5.05 µM (inactive); GI50 [51]: 8.99 µM (inactive); GI50 [52]: 14 µM (inactive); GI50 [16]: 21.6 µM (inactive); GI50 [53]: 15 µM (inactive); GI50 [54]: 2.36 µM (inactive); GI50 [55]: 3.89 µM (inactive); GI50 [17]: 13 µM (inactive); GI50 [18]: 5.68 µM (inactive); GI50 [19]: 16.4 µM (inactive); GI50 [20]: 3.33 µM (inactive); GI50 [56]: 7.24 µM (inactive); GI50 [57]: 6.22 µM (inactive); GI50 [21]: 29.5 µM (inactive); GI50 [22]: 16.9 µM (inactive); GI50 [23]: 18.2 µM (inactive); GI50 [24]: 17.4 µM (inactive); GI50 [25]: 16.6 µM (inactive); GI50 [58]: 17.7 µM (inactive); GI50 [26]: 13.5 µM (inactive); GI50 [59]: 14.5 µM (inactive); GI50 [27]: 13.9 µM (inactive); GI50 [28]: 14.2 µM (inactive); GI50 [29]: 20.9 µM (inactive); GI50 [60]: 14.6 µM (inactive); GI50 [61]: 21.5 µM (inactive); GI50 [30]: 17.7 µM (inactive); GI50 [31]: 14.9 µM (inactive); GI50 [33]: 12 µM (inactive); GI50 [62]: 13.2 µM (inactive)

Q: What does the source list for `O=C(N/N=C\c1ccc([N+](=O)[O-])cc1)Nc1cccc2ccccc12`?
A: GI50 [1]: > 31.6 µM (inactive); GI50 [35]: 10.7 µM (inactive); GI50 [36]: 24.1 µM (inactive); GI50 [2]: 4.5 µM (inactive); GI50 [37]: 3.23 µM (inactive); GI50 [3]: > 29.7 µM (inactive); GI50 [38]: 15.3 µM (inactive); GI50 [39]: 27.7 µM (inactive); GI50 [40]: > 50.5 µM; GI50 [4]: 28.5 µM (inactive); GI50 [5]: > 37.3 µM (inactive); GI50 [41]: 14.1 µM (inactive); GI50 [42]: > 100 µM (inactive); GI50 [43]: > 100 µM (inactive); GI50 [6]: > 63.2 µM (inactive); GI50 [7]: 13.2 µM (inactive); GI50 [8]: > 100 µM (inactive); GI50 [9]: > 100 µM (inactive); GI50 [11]: > 100 µM (inactive); GI50 [12]: 29.1 µM (inactive); GI50 [13]: > 49.9 µM (inactive); GI50 [44]: 7.1 µM (inactive); GI50 [14]: 20.4 µM (inactive); GI50 [45]: > 43.7 µM (inactive); GI50 [46]: > 100 µM (inactive); GI50 [15]: 6.03 µM (inactive); GI50 [47]: 23 µM (inactive); GI50 [48]: 24.9 µM (inactive); GI50 [49]: 3.99 µM (inactive); GI50 [50]: 27.5 µM (inactive); GI50 [51]: 19.1 µM (inactive); GI50 [52]: 48.9 µM (inactive); GI50 [16]: 17.7 µM (inactive); GI50 [53]: 5.55 µM (inactive); GI50 [54]: > 100 µM (inactive); GI50 [55]: 22.5 µM (inactive); GI50 [17]: 24.5 µM (inactive); GI50 [18]: > 55.1 µM (inactive); GI50 [19]: 4.79 µM (inactive); GI50 [20]: 6.15 µM (inactive); GI50 [56]: > 23.1 µM (inactive); GI50 [57]: > 37.8 µM (inactive); GI50 [21]: 5.07 µM (inactive); GI50 [22]: 14 µM (inactive); GI50 [23]: > 100 µM (inactive); GI50 [24]: 18.8 µM (inactive); GI50 [25]: 11 µM (inactive); GI50 [58]: 4.25 µM (inactive); GI50 [26]: > 79.3 µM (inactive); GI50 [59]: > 100 µM (inactive); GI50 [27]: > 100 µM (inactive); GI50 [28]: 14.5 µM (inactive); GI50 [29]: 5.93 µM (inactive); GI50 [60]: 31.3 µM (inactive); GI50 [61]: > 25.9 µM (inactive); GI50 [30]: 4.88 µM (inactive); GI50 [31]: 7.28 µM (inactive); GI50 [33]: 58.9 µM (inactive); GI50 [62]: > 100 µM (inactive)
